One experiment deals with T1, mouse Bak protein (Mus musculus, UniProt O08734).
T1 construct: His tag; made in house; host or cells: Escherichia coli BL21 DE3
Briefly: Isothermal titration calorimetry (ITC), mouse protein. The note with it: mouse wild type Bak. It is filed as binding. The method, then:
The binding affinity of BKA-073 with Bak protein was examined by isothermal titration calorimetry (ITC) assay as described, [28]. ITC assay was carried out in the auto-iTC200 instrument (MicroCal, GE) at 25 °C. Purified recombinant human or mouse Bak protein was loaded into a 96 Deepwell PP plate. BKA-073 compound was then titrated stepwise into the protein for a total of 16 injections. Reference power and initial delay were set as 5 µCal/sec and 60s, respectively. A string speed of 750 rpm was used for the ITC measurements. The binding constant (Kd) value was determined by fitting the titration curve to a one-site binding mode, using the Origin software provided by the manufacturer.
Figure S3. […] The binding constant (KD) value was determined by fitting of the titration curve to a 1- […]
(1 x 10^5 cells) was transferred to a 5 ml culture tube, followed by the addition of 5 μl of FITC Annexin V and 5 μl propidium iodide (PI). […] Samples were analyzed by flow cytometry (BD FACSCantoTMII, BD Biosciences, San Jose, CA). ∆% cell death was calculated with the formula: (% cell death treated - % cell death non-treated) as described […]
Fluorescence polarization (FP) assay
Fluorescence polarization assay was carried out as described previously. […] The FP values (in millipolarization units) were measured using a fluorescence microplate reader at 485/530 nm (Gemini XPS, Molecular Devices). […]
(In general: ITC needs no label: the signal is the heat of the interaction.)

For a further experiment, the system named is A549 xenografts. Briefly: A549 lung cancer xenografts, tumor growth. It is filed as in vivo, Nu/Nu nude mice. How it is done:
Six-week-old female Nu/Nu nude mice were purchased from Envigo (Indianapolis, IN) and housed under pathogen-free conditions in microisolator cages. The animal propagation protocol was approved by the Emory Institutional Animal Care and Use Committee (IACUC) and the Emory Animal Ethics Committee. 3×10^6 lung cancer cells were injected into subcutaneous tissue in the flank region of nude mice. The tumors were allowed to grow to an average volume of 150~200 mm^3 prior to initiation of therapy as previously described, [29]. Patient-derived xenografts (PDXs, TKO-002 and TKO-005) were established as part of an IRB-approved phase II co-clinical trial of arsenic trioxide in patients with relapsed SCLC who had failed standard platinum-based chemotherapy. Tumor samples were obtained by image-guided biopsy and were directly implanted into Nu/Nu nude mice without intervening propagation in plastic culture plates. Direct serial propagation of growing tumor occurred for up to 5 generations. The animal propagation protocol was approved by the Emory IACUC and the Emory Animal Ethics Committee. Mice with SCLC and NSCLC xenografts or PDXs were treated with BKA-073 intraperitoneally (i.p.) or venetoclax orally as indicated. During treatment, tumor volume (V) was measured by caliper measurements once every two days as described previously. Mice were euthanized by CO2 inhalation at the end of treatment. Harvested tumor tissues were used for further analysis.
To assess whether BKA-073 induced suppression of tumor growth occurs through activation of Bak and apoptosis in vivo, representative samples from harvested tumor tissues were analyzed by cross-linking with BMH for Bak oligomerization or by immunohistochemistry (IHC) for active caspase 3 as described, [29], [47]. […] There were no decreases in white cells (WBC), red blood cells (RBC) and platelets (PLT) in blood.

Molecules are shown by their SMILES.

Results on 1 compound are retold here after publication PMC8344021, “Discovery of Small Molecule Bak Activator for Lung Cancer Therapy” (Theranostics, 2021).

The Kd is the equilibrium constant for the complex coming apart. Read a low Kd as higher affinity.

T1 sequence (O08734 whole entry): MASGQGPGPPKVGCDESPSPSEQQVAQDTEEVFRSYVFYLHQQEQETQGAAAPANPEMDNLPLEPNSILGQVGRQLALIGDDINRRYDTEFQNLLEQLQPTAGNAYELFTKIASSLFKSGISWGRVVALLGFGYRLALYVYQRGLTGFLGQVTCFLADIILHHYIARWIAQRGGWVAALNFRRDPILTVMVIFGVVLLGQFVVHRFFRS

`COc1ccc2nc3ccccc3c(NCCNCC(C)O)c2c1` (stereo not drawn) [BKA-073] came in with a Kd at mouse Bak protein of 93.4 ± 7.91 nM. In the experiment with A549 xenografts (5, 10, 15mg/kg/d i.p., 28 days), the “apoptosis (active caspase 3, IHC) in tumor tissues” value is recorded as “Dose-dependent”. Also, the tumor growth result in the experiment with A549 xenografts (5, 10, 15mg/kg/d i.p., 28 days) was “potently suppressed lung cancer growth in a dose-dependent fashion”; with A549 xenografts (A549-P xenografts, 15 mg/kg/d, 4 weeks) it was “repressed xenografts”; with A549 xenografts (parental A549 xenografts, 12.5mg/kg/d i.p., 28 days), “potently inhibited growth”. In addition, the “Bak oligomerization in tumor tissues” value with A549 xenografts (5, 10, 15mg/kg/d i.p., 28 days, BMH cross-linking) was “Dose-dependent”.
